Patent US12617797B2, “Substituted pyrazolo [1,5-a]pyrimidines having multimodal activity against pain” (ESTEVE PHARMACEUTICALS, S.A., priority 2020, dated 2026)
pKi: −log10 of the molar value.

Legend:
[1] = target: Human α2δ-1 subunit of Cav2.2 calcium channel (Homo sapiens, UniProt P54289); assay: Human α2δ-1 subunit of Cav2.2 calcium channel assay ([3H]-gabapentin binding); settings: binding to the α2δ-1 subunit of voltage-gated calcium channels expressed as Ki; + also covers inhibition between 1% and 50%
Summary of the method: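 Displacement of 15 nM [3H]-gabapentin from human α2δ-1-enriched membranes (Hepes-KOH 10 mM, pH 7.4; 27 °C, 60 min) read by filter binding and radioactivity counting. Values are single-point % inhibition (1 or 10 μM) or five-point Ki; 10 μM pregabalin sets NSB.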

Human σ1 receptor = target: T1, Human σ1 receptor (Homo sapiens, UniProt Q99720); assay: Human σ1 receptor radioligand assay ([3H](+)-pentazocine binding, transfected HEK-293 membranes); settings: binding to σ1 receptor expressed as Ki; + also covers inhibition between 1% and 50%; read-out: σ-1 binding
T1 construct: expressed in transfected cells; host or cells: HEK-293
Summary of the method: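 Ki was derived from five test concentrations, or % inhibition was measured at a single 1 or 10 μM dose, against 5 nM [3H](+)-pentazocine. Incubation was 120 min at 37° C in 50 mM Tris-HCl pH 8 with 7 μg HEK-293 membranes, and 10 μM haloperidol set non-specific binding. Bound radioactivity was counted after filtration.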

Chain of Human α2δ-1 subunit of Cav2.2 calcium channel (P54289 25-1103): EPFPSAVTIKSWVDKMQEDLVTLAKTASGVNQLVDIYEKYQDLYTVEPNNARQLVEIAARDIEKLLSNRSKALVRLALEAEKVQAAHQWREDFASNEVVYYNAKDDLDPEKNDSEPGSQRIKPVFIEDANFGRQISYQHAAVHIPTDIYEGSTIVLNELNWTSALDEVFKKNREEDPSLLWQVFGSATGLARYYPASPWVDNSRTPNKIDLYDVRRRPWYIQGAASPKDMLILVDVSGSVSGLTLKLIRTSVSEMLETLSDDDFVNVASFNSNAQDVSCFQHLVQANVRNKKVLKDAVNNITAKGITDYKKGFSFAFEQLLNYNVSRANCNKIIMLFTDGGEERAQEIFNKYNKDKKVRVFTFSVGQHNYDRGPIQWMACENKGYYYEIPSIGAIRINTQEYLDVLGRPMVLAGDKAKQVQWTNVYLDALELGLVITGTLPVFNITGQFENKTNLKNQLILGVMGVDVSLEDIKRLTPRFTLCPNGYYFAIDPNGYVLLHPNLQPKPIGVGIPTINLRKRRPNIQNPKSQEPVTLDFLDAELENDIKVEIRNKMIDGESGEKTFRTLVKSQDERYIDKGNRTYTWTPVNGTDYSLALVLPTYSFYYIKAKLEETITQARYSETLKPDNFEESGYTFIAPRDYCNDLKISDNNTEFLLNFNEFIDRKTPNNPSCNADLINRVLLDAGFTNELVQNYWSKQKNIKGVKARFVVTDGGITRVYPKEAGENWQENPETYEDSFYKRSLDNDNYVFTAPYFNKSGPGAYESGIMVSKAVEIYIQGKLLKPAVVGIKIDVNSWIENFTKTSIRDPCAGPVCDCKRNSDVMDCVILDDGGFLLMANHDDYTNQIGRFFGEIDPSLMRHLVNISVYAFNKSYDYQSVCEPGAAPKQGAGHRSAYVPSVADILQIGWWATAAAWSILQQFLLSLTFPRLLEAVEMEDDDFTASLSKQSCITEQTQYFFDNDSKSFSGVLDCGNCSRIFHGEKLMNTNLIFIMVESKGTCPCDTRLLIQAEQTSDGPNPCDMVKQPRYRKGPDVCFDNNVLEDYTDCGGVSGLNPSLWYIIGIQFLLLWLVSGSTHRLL
T1 sequence (Q99720 whole entry): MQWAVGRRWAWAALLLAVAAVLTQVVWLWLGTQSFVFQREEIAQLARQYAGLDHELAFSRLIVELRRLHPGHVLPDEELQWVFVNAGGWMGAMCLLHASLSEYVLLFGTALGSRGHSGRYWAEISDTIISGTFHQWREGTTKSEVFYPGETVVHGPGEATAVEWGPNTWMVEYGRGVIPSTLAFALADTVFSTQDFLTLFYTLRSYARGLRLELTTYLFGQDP

pKi [1]	pKi (Human σ1 receptor)	Compound
< 5.30	> 6.30	Cc1nn2c(CC3CCCN(Cc4ccc(Cl)cc4)C3)ccnc2c1CN(C)C (centres unmarked) [Example 251, 1-(7-((1-(4-Chlorobenzyl)piperidin-3-yl)methyl)-2-methylpyrazolo[1,5-a]pyrimidin-3-yl)-N,N-dimethylmethanamine]
< 5.30	6.00 to 6.30	CCOc1ccc(-c2c(C)nn3c(C4CCCN(Cc5ccccc5)C4)ccnc23)cc1 (centres unmarked) [Example 45, 7-(1-Benzylpiperidin-3-yl)-3-(4-ethoxyphenyl)-2-methylpyrazolo[1,5-a]pyrimidine]
< 5.30	< 6.00	Clc1ccc(CN2CCCC(c3ccnc4cc(Br)nn34)C2)cc1Cl (centres unmarked) [Example 112, 2-Bromo-7-(1-(3,4-dichlorobenzyl)piperidin-3-yl)pyrazolo[1,5-a]pyrimidine]
5.30 to 6.30	< 6.00	c1ccc(CN2CCCC(c3ccnc4cc(-c5cccs5)nn34)C2)cc1 (centres unmarked) [Example 19, 7-(1-Benzylpiperidin-3-yl)-2-(thiophen-2-yl)pyrazolo[1,5-a]pyrimidine]
< 5.30	> 6.30	Cc1nn2c([C@H]3CCCN(Cc4ccc(Cl)cc4)C3)ccnc2c1CNC[C@@H]1CCOC(C)(C)C1 [Example 223]
5.30 to 6.30	< 6.00	Cc1nn2c(C3CCCN(Cc4ccccc4)C3)ccnc2c1-c1ccnc(C(F)(F)F)c1 (centres unmarked) [Example 53, 7-(1-Benzylpiperidin-3-yl)-2-methyl-3-(2-(trifluoromethyl)pyridin-4-yl)pyrazolo[1,5-a]pyrimidine]
5.30 to 6.30	< 6.00	CN(C)c1ccc(-c2cc3nccc(C4CCCN(Cc5ccccc5)C4)n3n2)cc1 (centres unmarked) [Example 22, 4-(7-(1-Benzylpiperidin-3-yl)pyrazolo[1,5-a]pyrimidin-2-yl)-N,N-dimethylaniline]
5.30 to 6.30	> 6.30	Cc1nn2c(C3CCCN(Cc4ccc(Cl)cc4)C3)ccnc2c1CN(C)Cc1ccccc1 (centres unmarked) [Example 145, N-Benzyl-1-(7-(1-(4-chlorobenzyl)piperidin-3-yl)-2-methylpyrazolo[1,5-a]pyrimidin-3-yl)-N-methylmethanamine]
5.30 to 6.30	< 6.00	Cc1nn2c([C@H]3CCCN(Cc4ccccc4)C3)ccnc2c1CNC[C@@H]1CCC(=O)NC1 [Example 246, (S)-5-((((7-((S)-1-Benzylpiperidin-3-yl)-2-methylpyrazolo[1,5-a]pyrimidin-3-yl)methyl)amino)methyl)piperidin-2-one]
< 5.30	< 6.00	Cc1nn2c(C3CCCN(Cc4ccc(C(F)(F)F)cc4)C3)ccnc2c1-c1ccncc1 (centres unmarked) [Example 126, 2-Methyl-3-(pyridin-4-yl)-7-(1-(4-(trifluoromethyl)benzyl)piperidin-3-yl)pyrazolo[1,5-a]pyrimidine]
< 5.30	> 6.30	Cc1nn2c([C@@H]3CCCN(Cc4ccc(Cl)cc4)C3)ccnc2c1CN(C)C [Example 211, (R)-1-(7-(1-(4-chlorobenzyl)piperidin-3-yl)-2-methylpyrazolo[1,5-a]pyrimidin-3-yl)-N,N-dimethylmethanamine]
< 5.30	< 6.00	CCOc1ccc(-c2cc3nccc(C4CCCN(Cc5ccccc5)C4)n3n2)cc1 (centres unmarked) [Example 13, 7-(1-Benzylpiperidin-3-yl)-2-(4-ethoxyphenyl)pyrazolo[1,5-a]pyrimidine]
< 5.30	< 6.00	CC(=O)Nc1c(C)nn2c(C3CCCN(Cc4ccccc4)C3)ccnc12 (centres unmarked) [Example 8, N-(7-(1-Benzylpiperidin-3-yl)-2-methylpyrazolo[1,5-a]pyrimidin-3-yl)acetamide]
< 5.30	< 6.00	Cc1nn2c(C3CCCN(Cc4ccccc4)C3)ccnc2c1N(C)C (centres unmarked) [Example 142, 7-(1-Benzylpiperidin-3-yl)-N,N,2-trimethylpyrazolo[1,5-a]pyrimidin-3-amine]
5.30 to 6.30	> 6.30	Cc1nn2c(C3CCCN(Cc4ccc(Cl)cc4)C3)ccnc2c1CNC(C)C (centres unmarked) [Example 159, N-((7-(1-(4-Chlorobenzyl)piperidin-3-yl)-2-methylpyrazolo[1,5-a]pyrimidin-3-yl)methyl)propan-2-amine]
< 5.30	< 6.00	Cc1noc(C)c1-c1c(C)nn2c(C3CCCN(Cc4ccc(Cl)cc4)C3)ccnc12 (centres unmarked) [Example 133, 4-(7-(1-(4-Chlorobenzyl)piperidin-3-yl)-2-methylpyrazolo[1,5-a]pyrimidin-3-yl)-3,5-dimethylisoxazole]
> 6.30	> 6.30	Cc1nn2c([C@H]3CCCN(Cc4ccc(F)cc4)C3)ccnc2c1CNCC1CCOCC1 [Example 206, (S)-1-(7-(1-(4-Fluorobenzyl)piperidin-3-yl)-2-methylpyrazolo[1,5-a]pyrimidin-3-yl)-N-((tetrahydro-2H-pyran-4-yl)methyl)methanamine]

pKi [1]	pKi (Human σ1 receptor)	Compound
5.30 to 6.30	6.00 to 6.30	Cc1nn2c(C3CCCN(Cc4ccccc4)C3)ccnc2c1CNCC1C[C@@H](C)O[C@@H](C)C1 (stereo partly drawn) [Example 220, 1-(7-(1-Benzylpiperidin-3-yl)-2-methylpyrazolo[1,5-a]pyrimidin-3-yl)-N-(((2R,6S)-2,6-dimethyltetrahydro-2H-pyran-4-yl)methyl)methanamine]
5.30 to 6.30	> 6.30	Cc1nn2c(C3CCCN(Cc4ccccc4)C3)ccnc2c1CNCCc1ccccc1 (centres unmarked) [Example 97, N-((7-(1-Benzylpiperidin-3-yl)-2-methylpyrazolo[1,5-a]pyrimidin-3-yl)methyl)-2-phenylethanamine]
5.30 to 6.30	> 6.30	Cc1nn2c(C3CCCN(Cc4ccc(Cl)cc4)C3)ccnc2c1CNCCC1CCOCC1 (centres unmarked) [Example 178, N-((7-(1-(4-Chlorobenzyl)piperidin-3-yl)-2-methylpyrazolo[1,5-a]pyrimidin-3-yl)methyl)-2-(tetrahydro-2H-pyran-4-yl)ethan-1-amine]
< 5.30	6.00 to 6.30	c1ccc(CN2CCCC(c3ccnc4cc(N5CCCC5)nn34)C2)cc1 (centres unmarked) [Example 78, 7-(1-Benzylpiperidin-3-yl)-2-(pyrrolidin-1-yl)pyrazolo[1,5-a]pyrimidine]
5.30 to 6.30	> 6.30	Cc1cc(C2CCCN(Cc3ccc(Cl)cc3)C2)n2nc(C)c(CNCC3CCOCC3)c2n1 (centres unmarked) [Example 238, 1-(7-(1-(4-Chlorobenzyl)piperidin-3-yl)-2,5-dimethylpyrazolo[1,5-a]pyrimidin-3-yl)-N-((tetrahydro-2H-pyran-4-yl)methyl)methanamine]
< 5.30	< 6.00	Cc1nn2c(C3CCCN(Cc4ccc(Cl)cc4)C3)ccnc2c1-c1ccncn1 (centres unmarked) [Example 139, 7-(1-(4-Chlorobenzyl)piperidin-3-yl)-2-methyl-3-(pyrimidin-4-yl)pyrazolo[1,5-a]pyrimidine]
> 6.30	> 6.30	Cc1nn2c([C@H]3CCCN(Cc4ccc(Cl)cc4)C3)ccnc2c1CN(C)CC1CC1 [Example 228, (S)-1-(7-(1-(4-chlorobenzyl)piperidin-3-yl)-2-methylpyrazolo[1,5-a]pyrimidin-3-yl)-N-(cyclopropylmethyl)-N-methylmethanamine]
5.30 to 6.30	< 6.00	CNCc1cc2nccc(C3CCCN(Cc4ccccc4)C3)n2n1 (centres unmarked) [Example 93, 1-(7-(1-Benzylpiperidin-3-yl)pyrazolo[1,5-a]pyrimidin-2-yl)-N-methylmethanamine]
5.30 to 6.30	> 6.30	Cc1nn2c(C3CCCN(Cc4ccc(Cl)cc4)C3)ccnc2c1CNCc1ccccc1 (centres unmarked) [Example 144, N-Benzyl-1-(7-(1-(4-chlorobenzyl)piperidin-3-yl)-2-methylpyrazolo[1,5-a]pyrimidin-3-yl)methanamine]
5.30 to 6.30	< 6.00	c1ccc(CNCc2cc3nccc(C4CCCN(Cc5ccccc5)C4)n3n2)cc1 (centres unmarked) [Example 94, N-Benzyl-1-(7-(1-benzylpiperidin-3-yl)pyrazolo[1,5-a]pyrimidin-2-yl)methanamine]
5.30 to 6.30	6.00 to 6.30	Cc1cc(-c2c(C)nn3c(C4CCCN(Cc5ccccc5)C4)ccnc23)ccn1 (centres unmarked) [Example 51, 7-(1-Benzylpiperidin-3-yl)-2-methyl-3-(2-methylpyridin-4-yl)pyrazolo[1,5-a]pyrimidine]
5.30 to 6.30	< 6.00	Cc1nn2c(C3CCCN(Cc4ccc(Cl)c(Cl)c4)C3)ccnc2c1-c1ccncc1 (centres unmarked) [Example 123, 7-(1-(3,4-Dichlorobenzyl)piperidin-3-yl)-2-methyl-3-(pyridin-4-yl)pyrazolo[1,5-a]pyrimidine]
< 5.30	< 6.00	Cc1cccc(CN2CCCC(c3ccnc4c(-c5ccncc5)c(C)nn34)C2)c1 (centres unmarked) [Example 77, 2-Methyl-7-(1-(3-methylbenzyl)piperidin-3-yl)-3-(pyridin-4-yl)pyrazolo[1,5-a]pyrimidine]
< 5.30	< 6.00	Clc1cccc(CN2CCCC(c3ccnc4cc(Br)nn34)C2)c1 (centres unmarked) [Example 111, 2-Bromo-7-(1-(3-chlorobenzyl)piperidin-3-yl)pyrazolo[1,5-a]pyrimidine]
5.30 to 6.30	6.00 to 6.30	c1ccc(CN2CCCC(c3ccnc4c(-c5ccncc5)cnn34)C2)cc1 (centres unmarked) [Example 36, 7-(1-Benzylpiperidin-3-yl)-3-(pyridin-4-yl)pyrazolo[1,5-a]pyrimidine]
5.30 to 6.30	< 6.00	Cc1nn2c(C3CCCN(Cc4ccc(Cl)cc4)C3)ccnc2c1-c1cnn(C)c1 (centres unmarked) [Example 132, 7-(1-(4-Chlorobenzyl)piperidin-3-yl)-2-methyl-3-(1-methyl-1H-pyrazol-4-yl)pyrazolo[1,5-a]pyrimidine]
5.30 to 6.30	6.00 to 6.30	Clc1cncc(Cl)c1-c1cc2nccc(C3CCCN(Cc4ccccc4)C3)n2n1 (centres unmarked) [Example 18, 7-(1-Benzylpiperidin-3-yl)-2-(3,5-dichloropyridin-4-yl)pyrazolo[1,5-a]pyrimidine]
